# Experimental data taken from US12691084B2, “Pharmaceutical composition for preventing or treating bone diseases” (INDUSTRY FOUNDATION OF CHONNAM NATIONAL UNIVERSITY, priority 2019, dated 2026).
# Legend:
# [1] = target: CYP3A4 (Homo sapiens, UniProt P08684); test: CYP450 drug metabolism inhibition, 3A4; type: in vitro ADME; details: for CYP 3A4 remaining activity: criterion remaining activity >50%
# Method: (§1) In order to analyze the drug metabolism of PMSA compound, ADME evaluation was requested to the Daegu-Gyeongbuk Advanced Medical industry Promotion Foundation (DGMIF). Metabolic stability of drugs using liver microsomes (microsomal stability), drug metabolism inhibitory ability by five CYP450 enzymes, plasma metabolism (plasma stability), plasma protein binding, and intestinal permeability of drugs (PAMPA, parallel artificial membrane permeability assay) were analyzed. […] Further, it was confirmed that the permeability resistance was excellent (see Table 3 below). On the other hand, for one of PMSA derivatives, that is, 2-(N-(3,5-dimethylphenyl)methylsulfinamido)-N-(2 (phenylthio)phenyl)propanamide (#25-D5), intestinal permeability of the drug (PAMPA) was not measured.
# [2] = Plasma stability; type: in vitro ADME
# Method: as §1
# [3] = test system: NFATc1; test: Intranuclear migration of transcription factors, western blotting of nuclear and cytoplasmic proteins; type: cell-based, mouse; details: osteoclasts differentiated by RANKL for 3 days
# Text: In order to further confirm the inhibitory effect of the PMSA compound on osteoclast differentiation, the intranuclear migration of transcription factors NFATc1 and NF-kB and the expression degree of osteoclast-specific genes regulated by the transcription factors were investigated.
# First, in order to confirm the intranuclear migration of transcription factors, osteoclasts differentiated by RANKL for 3 days were separated into nuclear protein and cytoplasmic protein using a NE-PER kit (ThermoFisher scientific 78833). Then, the expression of each of NFATc1 and NF-kB in each organelle was investigated through western blotting.
# [4] = target: CYP2C19 (Homo sapiens, UniProt P33261); test: CYP450 drug metabolism inhibition, 2C19; type: in vitro ADME; details: criterion remaining activity >50%
# Method: as §1
# [5] = Microsomal stability (M); type: in vitro ADME, mouse; details: M of H/M; criterion >60%
# Method: as §1
# [6] = test system: plasma proteins; test: Plasma protein binding (PPB); type: in vitro ADME, Human; details: for binding with plasma proteins: conclusion from ADME evaluation
# Method: as §1
# [7] = target: CYP2D6 (Homo sapiens, UniProt P10635); test: CYP450 drug metabolism inhibition, 2D6; type: in vitro ADME; details: criterion remaining activity >50%
# Method: as §1
# [8] = test system: osteoblast progenitor cells treated with hBMP2; test: Osteoblast differentiation, ALP staining; type: cell-based, mouse; details: 7 days
# Method: After collecting cells from C57BL/6J mouse calvaria at the age of 3 days, the cells were seeded on a 96-well plate in an amount of 4×10^3 cells per well, and then treated with 100 ng/ml of hBMP2 as a differentiation inducer. Simultaneously, the cells were treated with the compound of the present invention and cultured for 7 days, followed by ALP staining to assess differentiation influence. Specific experimental methods and results are as follows.
# Precursor cells isolated from the mouse skull were treated with hBMP2 (Bone morphogenic protein 2, Sino biological, 10426-HNAE, 100 ng/ml) to induce differentiation into osteoblasts. Differentiated osteoblasts could be discriminated through alkaline phosphatase (ALP) staining as an osteoblast-specific protein. When the progenitor cells were treated with hBMP2, each of the 35D35 compounds was also used for treatment, followed by culturing the cells for 7 days while changing the medium every 2 to 3 days.
# 4×10^3 osteoblast progenitor cells were put into a 96-well plate and treated with hBMP2 to induce differentiation of osteoblasts. At this time, the cells were treated with #25 (PMSA-3-Ac) and #25-D12 (PMSA-2-OMe-5-Cl), respectively, and then cultured for 7 days.
# After discarding the ethanol, the remaining product was washed with HBSS, followed by adding a NBT solution (Sigma, B1911) in an amount of 100 μl per well and staining for 15 minutes. By washing twice with water, the remaining dye was eliminated. After ALP staining, a degree of color development was measured using Image J software, and then graphed for comparison. […] In other words, it can be seen that the differentiation of osteoblasts is not affected by treatment with the PMSA compound.
# Precursor cells isolated from the mouse skull were treated with hBMP2 (Bone morphogenic protein 2, Sino biological, 10426-HNAE) to induce differentiation into osteoblasts. […]
# After ALP staining, the degree of color development was measured using Image J software, and then graphed for comparison. […]
# [9] = ADME evaluation (DGMIF), overall conclusion on toxicity; type: in vitro ADME; details: conclusion from ADME evaluation
# Method: as §1
# [10] = PAMPA, parallel artificial membrane permeability assay; type: in vitro ADME; details: for Papp: PAMPA, criterion >40, read-out: PAMPA (>40) Pe; for permeability resistance: conclusion from ADME evaluation
# Method: as §1
# [11] = target: T1, CYP1A2 (Homo sapiens, UniProt P05177); test: CYP450 drug metabolism inhibition, 1A2; type: in vitro ADME; details: criterion remaining activity >50%
# T1 sequence (P05177 1-516): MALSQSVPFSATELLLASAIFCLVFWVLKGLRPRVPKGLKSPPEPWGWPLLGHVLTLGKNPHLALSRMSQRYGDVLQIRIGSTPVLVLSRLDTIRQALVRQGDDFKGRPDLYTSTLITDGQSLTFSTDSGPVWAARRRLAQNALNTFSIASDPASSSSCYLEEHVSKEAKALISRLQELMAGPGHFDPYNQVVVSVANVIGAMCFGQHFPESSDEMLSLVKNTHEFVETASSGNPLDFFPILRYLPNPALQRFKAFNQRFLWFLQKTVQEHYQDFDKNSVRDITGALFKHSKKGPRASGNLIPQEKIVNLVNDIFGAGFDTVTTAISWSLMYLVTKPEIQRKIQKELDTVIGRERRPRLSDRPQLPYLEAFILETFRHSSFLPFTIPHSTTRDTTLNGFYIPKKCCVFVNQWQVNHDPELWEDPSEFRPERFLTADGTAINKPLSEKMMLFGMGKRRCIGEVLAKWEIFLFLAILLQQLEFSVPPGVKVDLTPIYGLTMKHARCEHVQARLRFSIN
# Method: as §1
# CYP3A4, sequence (P08684 whole entry): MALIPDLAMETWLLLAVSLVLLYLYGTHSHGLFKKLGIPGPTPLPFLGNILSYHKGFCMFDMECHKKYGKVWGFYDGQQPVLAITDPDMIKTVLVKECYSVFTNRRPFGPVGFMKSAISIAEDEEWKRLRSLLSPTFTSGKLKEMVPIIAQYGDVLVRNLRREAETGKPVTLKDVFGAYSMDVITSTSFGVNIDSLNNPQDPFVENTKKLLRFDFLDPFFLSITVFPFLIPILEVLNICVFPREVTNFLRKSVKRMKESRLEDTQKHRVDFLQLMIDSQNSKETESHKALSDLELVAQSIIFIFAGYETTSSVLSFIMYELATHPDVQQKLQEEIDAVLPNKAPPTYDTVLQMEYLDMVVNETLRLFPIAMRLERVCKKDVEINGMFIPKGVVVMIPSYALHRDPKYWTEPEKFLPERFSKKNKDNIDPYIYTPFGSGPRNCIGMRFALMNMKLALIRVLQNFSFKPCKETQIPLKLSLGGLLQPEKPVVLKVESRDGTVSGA
# CYP2D6, sequence (P10635 whole entry): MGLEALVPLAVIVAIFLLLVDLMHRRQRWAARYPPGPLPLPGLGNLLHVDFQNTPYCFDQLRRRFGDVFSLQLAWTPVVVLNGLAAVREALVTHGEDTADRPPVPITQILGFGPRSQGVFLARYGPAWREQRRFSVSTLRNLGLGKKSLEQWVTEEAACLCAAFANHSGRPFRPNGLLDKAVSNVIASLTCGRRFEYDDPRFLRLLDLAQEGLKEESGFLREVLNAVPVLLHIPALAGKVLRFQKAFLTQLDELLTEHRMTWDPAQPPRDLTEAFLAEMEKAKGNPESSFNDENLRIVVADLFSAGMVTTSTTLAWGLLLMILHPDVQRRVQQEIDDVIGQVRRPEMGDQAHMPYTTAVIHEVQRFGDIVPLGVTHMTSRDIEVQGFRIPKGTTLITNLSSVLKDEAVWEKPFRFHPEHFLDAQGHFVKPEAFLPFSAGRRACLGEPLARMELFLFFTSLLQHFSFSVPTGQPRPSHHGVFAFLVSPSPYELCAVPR
# CYP2C19, sequence (P33261 whole entry): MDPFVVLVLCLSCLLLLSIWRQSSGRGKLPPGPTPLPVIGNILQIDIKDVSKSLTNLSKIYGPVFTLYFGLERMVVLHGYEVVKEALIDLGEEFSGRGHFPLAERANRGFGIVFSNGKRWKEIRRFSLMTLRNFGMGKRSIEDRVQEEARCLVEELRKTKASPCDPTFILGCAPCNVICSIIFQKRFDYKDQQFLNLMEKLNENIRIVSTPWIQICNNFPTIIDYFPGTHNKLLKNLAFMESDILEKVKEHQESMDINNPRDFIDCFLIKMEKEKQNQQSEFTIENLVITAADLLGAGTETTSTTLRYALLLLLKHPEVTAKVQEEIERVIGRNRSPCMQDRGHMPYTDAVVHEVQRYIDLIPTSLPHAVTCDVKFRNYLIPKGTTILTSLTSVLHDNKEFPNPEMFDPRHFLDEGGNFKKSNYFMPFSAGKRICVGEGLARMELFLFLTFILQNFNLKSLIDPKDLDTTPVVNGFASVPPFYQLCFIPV
SMILES,CYP 3A4 remaining activity [1],Plasma S Human 30 min (% Remaining) [2],Plasma S Human 120 min (% Remaining) [2],NFATc1 expression in the nucleus [3],CYP 2C19 remaining activity [4],Microsomal stability (>60%) M [5],"PPB Human (%, bound) [6]",binding with plasma proteins [6],CYP 2D6 remaining activity [7],osteoblast differentiation (ALP staining) [8],toxicity [9],Papp [10],permeability resistance [10],CYP 1A2 remaining activity [11],utility as a drug such as influence on activity of CYP3A4 ([1]; compared with other derivatives)
"CC(=O)c1cccc(N(CC(=O)Nc2ccccc2Sc2ccccc2)S(C)(=O)=O)c1 [#25, 2-(N-(3-acetylphenyl)methylsulfonamido)-N-(2-(phenylthio)phenyl)acetamide]",53.3%,87.1 % Remaining,97.3 % Remaining,less expressed in the nucleus,6.2%,8.0%,"98.4 %, bound",good,80.4%,did not inhibit or activate,low toxicity,59.4 ± 1.6 ×10⁻⁶ cm/s,excellent,85.7%,–
"Cc1cc(C)cc(N([C@@H](C)C(=O)Nc2ccccc2Sc2ccccc2)S(C)(=O)=O)c1 [#25-D5, N^2-(3,5-dimethylphenyl)-N^2-(methylsulfonyl)-N-[2-(phenylthio)phenyl]alanineamide]",13.4%,100/100 % Remaining,100/100 % Remaining,–,21.7%,14.7%,"99.8 %, bound",–,87.3%,not affected,–,–,–,85.1%,not higher than other derivatives
"COc1ccc(Cl)cc1N(CC(=O)Nc1ccccc1Sc1ccccc1)S(C)(=O)=O [#25-D12, 2-(N-(5-chloro-2-methoxyphenyl)methylsulfonamido)-N-(2-(phenylthio)phenyl)acetamide]",26%,98.3 % Remaining,97.8 % Remaining,less expressed in the nucleus,6.3%,21.7%,"99.8 %, bound",good,85.5%,did not inhibit or activate,low toxicity,49 ± 2 ×10⁻⁶ cm/s,excellent,77.9%,–
